Source: US12122761B2, “2-azaspiro[3.4]octane derivatives as M4 agonists” (NOVARTIS AG, priority 2019, dated 2024)

Legend:
[1] = target: T1, human cloned CHRM2 receptor (M2_CHO cells) (Homo sapiens, UniProt P08172); test: CHRM2 Ca++ Flux Assay (agonist mode, FDSS 7000EX); format: cell-based; details: for Emax: Percent Activity measured to EC100 of Carbachol, read-out: M2 FDSS PA; for EC50: agonist mode, geometric mean if tested more than once, read-out: M2 FDSS EC50
T1 construct: expressed in transfected cells; host or cells: CHO-K1
T1 sequence (P08172 1-466): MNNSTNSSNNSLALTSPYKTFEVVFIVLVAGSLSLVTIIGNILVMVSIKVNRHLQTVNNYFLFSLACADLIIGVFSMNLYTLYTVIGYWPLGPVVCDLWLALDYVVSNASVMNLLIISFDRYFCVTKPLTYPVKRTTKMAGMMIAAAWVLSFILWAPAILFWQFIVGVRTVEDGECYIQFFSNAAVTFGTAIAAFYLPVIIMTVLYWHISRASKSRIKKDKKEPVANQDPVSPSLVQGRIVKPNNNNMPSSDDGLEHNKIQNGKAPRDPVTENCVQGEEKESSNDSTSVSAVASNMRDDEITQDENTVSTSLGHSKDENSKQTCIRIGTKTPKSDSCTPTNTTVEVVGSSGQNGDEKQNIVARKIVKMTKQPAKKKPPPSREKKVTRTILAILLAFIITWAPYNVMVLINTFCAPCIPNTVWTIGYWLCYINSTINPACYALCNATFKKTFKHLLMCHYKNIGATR
Outline: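 Response expressed as percent activity versus the Carbachol EC100, with curves fitted by four-parameter non-linear regression of triplicates. Stable M2_CHO cells were Ca++ dye-loaded and preincubated 60 min at room temperature in assay buffer containing 20 μM ATP; signal imaged for 3 minutes after compound.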

[2] = target: T2, human cloned CHRM5 receptor (M5_CHO) (Homo sapiens, UniProt P08912); test: CHRM5 Ca++ Flux Assay (agonist mode, FDSS 7000EX); format: cell-based; details: for Emax: Percent Activity measured to EC100 of Carbachol, read-out: M5 FDSS PA; for EC50: agonist mode, geometric mean if tested more than once, read-out: M5 FDSS EC50
T2 construct: expressed in transfected cells; host or cells: CHO (M5_CHO)
T2 sequence (P08912 1-532): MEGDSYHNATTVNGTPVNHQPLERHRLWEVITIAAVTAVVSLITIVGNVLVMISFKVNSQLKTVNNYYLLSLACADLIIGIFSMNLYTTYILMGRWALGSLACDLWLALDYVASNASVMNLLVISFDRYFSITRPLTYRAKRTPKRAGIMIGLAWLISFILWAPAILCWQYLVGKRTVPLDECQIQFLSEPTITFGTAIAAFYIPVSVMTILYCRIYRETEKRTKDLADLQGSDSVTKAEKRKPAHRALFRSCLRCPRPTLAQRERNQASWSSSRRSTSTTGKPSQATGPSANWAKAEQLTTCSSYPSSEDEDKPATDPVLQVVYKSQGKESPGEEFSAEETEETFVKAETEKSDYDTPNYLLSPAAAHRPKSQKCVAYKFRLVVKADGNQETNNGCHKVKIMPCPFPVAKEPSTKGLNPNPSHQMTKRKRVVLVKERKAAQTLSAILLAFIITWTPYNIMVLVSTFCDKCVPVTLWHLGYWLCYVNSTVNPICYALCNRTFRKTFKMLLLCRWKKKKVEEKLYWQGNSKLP
Outline: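 Stable CHO-K1 lines (human M3 or M5), calcium-dye loaded ≥1 h, assayed in Ca/Mg-free HBSS + 20 mM HEPES + 2.5 mM probenecid. 11-pt dose response, triplicate, 3 min fluorescence read. 4-parameter regression; % activity vs carbachol EC100.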

Row | SMILES | Emax [1] [%] | EC50 [1] [nM] | Emax [2] [%] | EC50 [2] [nM]
1 | Fc1ccc(N2CC3(CC[C@@H](N4CCC(c5ccccc5C5CCOCC5)CC4)C3)C2)cn1 [Example 5CC, (R)-2-(6-fluoropyridin-3-yl)-6-(4-(2-(tetrahydro-2H-pyran-4-yl)phenyl)piperidin-1-yl)-2-azaspiro[3.4]octane] | 35 | 466 | 0 | > 25000
2 | c1ccc(C2CCOC2)c(C2CCN([C@@H]3CCC4(C3)CN(c3nnco3)C4)CC2)c1 (stereo partly drawn) [Example 2K, 2-((6R)-6-(4-(2-(tetrahydrofuran-3-yl)phenyl)piperidin-1-yl)-2-azaspiro[3.4]octan-2-yl)-1,3,4-oxadiazole] | 29 | 159 | 0 | > 25000
3 | O=C(C1COC1)N1CC2(CC[C@@H](N3CCC(c4ccccc4OC4CCC4)CC3)C2)C1 [Example 7H, (R)-(6-(4-(2-cyclobutoxyphenyl)piperidin-1-yl)-2-azaspiro[3.4]octan-2-yl)(oxetan-3-yl)methanone] | 0 | – | 0 | > 25000
4 | COCCOc1ccccc1C1CCN([C@@H]2CCC3(C2)CN(c2ccnnc2)C3)CC1 [Example 5Z, (R)-6-(4-(2-(2-methoxyethoxy)phenyl)piperidin-1-yl)-2-(pyridazin-4-yl)-2-azaspiro[3.4]octane] | 0 | – | 0 | > 25000
5 | COc1ccccc1C1CCN([C@@H]2CCC3(C2)CN(c2nc(C)ns2)C3)CC1 [Example 3M, (R)-5-(6-(4-(2-methoxyphenyl)piperidin-1-yl)-2-azaspiro[3.4]octan-2-yl)-3-methyl-1,2,4-thiadiazole] | 0 | – | 0 | > 25000
6 | CC(C)(O)CCOc1ccccc1C1CCN([C@@H]2CCC3(C2)CN(c2nncs2)C3)CC1 [Example 3H, (R)-4-(2-(1-(2-(1,3,4-thiadiazol-2-yl)-2-azaspiro[3.4]octan-6-yl)piperidin-4-yl)phenoxy)-2-methylbutan-2-ol] | 0 | – | 0 | > 25000
7 | COCCOc1ccccc1C1CCN([C@@H]2CCC3(C2)CN(c2nncs2)C3)CC1 [Example 3F, (R)-2-(6-(4-(2-(2-methoxyethoxy)phenyl)piperidin-1-yl)-2-azaspiro[3.4]octan-2-yl)-1,3,4-thiadiazole] | 0 | – | 0 | > 25000
8 | FC1(COc2ccccc2C2CCN([C@@H]3CCC4(C3)CN(c3nnco3)C4)CC2)CCOCC1 [Example 2D, (R)-2-(6-(4-(2-((4-fluorotetrahydro-2H-pyran-4-yl)methoxy)phenyl)piperidin-1-yl)-2-azaspiro[3.4]octan-2-yl)-1,3,4-oxadiazole] | 8 | 50 | 0 | > 25000
9 | FC1(COc2ccccc2C2CCN([C@@H]3CCC4(C3)CN(c3nncs3)C4)CC2)CCOCC1 [Example 1J, (R)-2-(6-(4-(2-((4-fluorotetrahydro-2H-pyran-4-yl)methoxy)phenyl)piperidin-1-yl)-2-azaspiro[3.4]octan-2-yl)-1,3,4-thiadiazole] | 72 | 51 | 0 | > 25000

Second part, the molecule after the results:

Row | Emax [1] [%] | EC50 [1] [nM] | Emax [2] [%] | EC50 [2] [nM] | SMILES
10 | 33 | 207 | 0 | – | CCOc1ccccc1C1CCN([C@@H]2CCC3(C2)CN(C(=O)C2COC2)C3)CC1 [Example 7J, (R)-(6-(4-(2-ethoxyphenyl)piperidin-1-yl)-2-azaspiro[3.4]octan-2-yl)(oxetan-3-yl)methanone]
11 | 0 | – | 0 | > 25000 | CC(C)Oc1cc(F)ccc1C1CCN([C@@H]2CCC3(C2)CN(C(=O)C2COC2)C3)CC1 [Example 6D, (R)-(6-(4-(4-fluoro-2-isopropoxyphenyl)piperidin-1-yl)-2-azaspiro[3.4]octan-2-yl)(oxetan-3-yl)methanone]
12 | 22 | 98 | 9 | 935 | O=C(C1COC1)N1CC2(CC[C@@H](N3CCC(c4ccccc4OCC(F)F)CC3)C2)C1 [Example 7JJ, (R)-(6-(4-(2-(2,2-difluoroethoxy)phenyl)piperidin-1-yl)-2-azaspiro[3.4]octan-2-yl)(oxetan-3-yl)methanone]
13 | 77 | 651 | 0 | > 25000 | CC(C)(F)COc1ccccc1C1CCN([C@@H]2CCC3(C2)CN(C(=O)C2COC2)C3)CC1 [Example 7B, (R)-(6-(4-(2-(2-fluoro-2-methylpropoxy)phenyl)piperidin-1-yl)-2-azaspiro[3.4]octan-2-yl)(oxetan-3-yl)methanone]
